This note sets out measurements from patent US8748389B2, “Treating cancer” (Theryte Limited, priority 2004, dated 2014).

Data set [1] has as its system short term primary culture of human fibroblasts. Briefly: Experiment 2 further experiment, cells viewed under phase contrast microscopy. The class given is cell-based. As to conditions: for cytotoxicity to cultured primary cultures of normal human cells: conclusion of Experiment 2; for appearance of cells: 2.5 mM peptide, 2 days plus a further 7 days, FIG. 14. How it is done:
In a further experiment, using a different batch of synthesized peptide, RT112 cells (a human bladder cancer cell line), HT29 cells (a human colon cancer cell line) and MGHU cells (a human bladder cancer cell line) were plated as described above. In parallel, a short term primary culture of human fibroblasts was plated in 48 well plates. After 24 h, the tissue culture medium was removed from each well and replaced with Hams F12 complete tissue culture medium (without foetal calf serum) supplemented with either 2.5 mM SEQ ID NO:1 or 2.5 mM SEQ ID NO:4. After culturing for 2 days, foetal calf serum was added to a concentration of 10%. The cells were then cultured for a further 7 days and viewed under phase contrast microscopy.
These peptides are not cytotoxic to cultured primary cultures of normal human cells.

Data set [2] concerns H441 cells. Briefly: % viability by visual observation under phase contrast microscopy, 48 well, Experiment 2 first experiment. The class given is cell-based, human. How it is done:
(§1) In a first experiment, MGHU-1 cells (a human bladder cancer cell line), were plated in 48 well tissue culture dishes in 0.2 ml complete Hams F12 tissue culture medium supplemented with 10% foetal calf serum. SKMEL-2 cells (a human malignant melanoma cell line), HX34 cells (a human malignant melanoma cell line) and H441 cells (a human lung cancer cell line) were plated under identical conditions. The cells were incubated at 37° C. in an atmosphere of 5% CO2.
(§2) After 24 h, the culture medium was then removed from each well and replaced by Hams F12 complete tissue culture medium (without foetal calf serum). The culture medium added to each well was supplemented with a peptide having the sequence set out in SEQ ID NO:1, SEQ ID NO:2 or SEQ ID NO:3 at a concentration of either 0.5, 1.0 or 5.0 mM in such a way that each cell line was exposed to each peptide at each concentration.
(§3) The cells were then cultured for two days. Foetal calf serum was then added to a final concentration of 10%, and the cells were left for a further 5 days. The % viability of the cells in each well was calculated by visual observation under phase contrast microscopy. The effect of the peptides having the amino acid sequences set out in SEQ ID NO:1 and SEQ ID NO:3 on the viability of the SK MeI-2, MGHU-1, HX34 and H441 cell lines is shown in FIG. 12. […] Where the concentration of SEQ ID NO:1 was 1.0 mM, 100% of MGHU-1 cells were killed. The viability of the other cell lines was not affected.

The test system of data set [3] is HX34 cells. Described as above. The class given is cell-based, human. Here is the method:
as §1, §2, §3

Data set [4] concerns SKMEL-2 cells. Described as above. The class given is cell-based, human. Here is the method: as §1, §2, §3
Data set [5] has as its system MGHU-1 cells. Described as above. The class given is cell-based, human. How it is done: as §1, §2, §3
Data set [6] relates to MGHU-1 bladder cancer cells. Briefly: Experiment 6, cell growth by daily phase-contrast microscopy, 96 well plates. It counts as cell-based, human. Here is the method:
(§4) Cancer cells and non-cancerous fibroblasts were separately seeded at 10^2 to 10^4 cells in 200 μl of Hams F12 tissue culture medium plus 10% fetal calf serum in 96 well plates and exposed to varying concentrations of a peptide having an amino acid sequence set out in SEQ ID NO: 17 ranging from 5.0 μM to 100 μM. Cell growth was studied by daily phase-contrast microscopy over 25 days.

Data set [7] relates to normal non cancerous fibroblasts. The data set is described as above. It counts as cell-based. Here is the method:
as §4

Data set [8] concerns Normal non-cancerous fibroblasts. Put plainly: Experiments 3 and 4, 96 well plates, viability by phase contrast microscopy. It counts as cell-based. How it is done:
(§5) Normal non-cancerous fibroblasts and cancer cells were exposed to the linear hexamer PRGPRP SEQ ID NO: 5 in 96 micro well plates using the same protocol as for SEQ. ID NO: 1 as previously described. The percent viability of the cells in each well was calculated by visual observation under phase contrast microscopy as previously described.
(§6) In order to define structure/function relationships different peptides were constructed SEQ ID NOS 5-16. Normal non-cancerous fibroblasts and cancer cells were exposed to 5 mM of these peptides in 96 well plates as previously described. The sequence of these peptides is listed below. Results were scored at 21 days.

Data set [9] concerns cancer cells. The description is as above. The class given is cell-based. Particulars: summary statement. Here is the method:
as §5, §6

For data set [10], the system named is non-cancerous fibroblasts. Briefly: Subsequent experiments testing cancerous and non-cancerous cell lines. The class given is cell-based.
Where [11] appears, read: visual observation of cell density and viability.
Setting [12] is: any concentration (0.5, 1.0 or 5.0 mM), day 7.

Where a SMILES comes first, the peptide text is derived from it.

For `CC(C)[C@H](NC(=O)[C@@H]1CCCN1C(=O)[C@H](CCCNC(=N)N)NC(=O)[C@@H](NC(=O)CNC(=O)[C@H](CCCNC(=N)N)NC(=O)[C@@H]1CCCN1C(=O)[C@@H](NC(=O)[C@@H](N)Cc1ccccc1)[C@@H](C)O)[C@@H](C)O)C(=O)N[C@@H](CCC(N)=O)C(=O)O` [SEQ ID NO:2] (H-FTPRGTRPVQ-OH; N-terminus and C-terminus assumed), the “cytotoxicity to cultured primary cultures of normal human cells” value in [1] is on record as “not cytotoxic”. In addition, the cytotoxicity result in data set [2] (setting [11]), in data set [3] (setting [11]), in data set [4] (setting [11]) and in data set [5] (setting [11]) was “cytotoxic” in each case. Besides, the “cytotoxicity compared with SEQ ID NO:1” value in data set [2] (setting [11]), in data set [3] (setting [11]), in data set [4] (setting [11]) and in data set [5] (setting [11]) was “less cytotoxic” each time.

For “cyclo-[PRGPRPVPRGPRPVPRGPRPV] (cyclic) [SEQ ID NO: 17]”, the cell morphology entry in data set [6] (after 20 days exposure, FIG. 19) was “marked loss of normal cell morphology”. For the same compound, in data set [6] (no complete detachment of dead cells from the plastic surface), the “cell morphology of cancerous cells” value is “loss of clear cell morphology”. Besides, the stimulation of fibroblasts result in data set [7] (10 days exposure, 10 μM, FIG. 18) is “marked non-cancerous fibroblast stimulation”; in data set [7] (between 5 and 10 days after exposure, 5.0 μM to 100 μM), “Marked stimulation”.

Turning to `N=C(N)NCCC[C@H](NC(=O)[C@@H]1CCCN1)C(=O)NCC(=O)N1CCC[C@H]1C(=O)N[C@@H](CCCNC(=N)N)C(=O)N1CCC[C@H]1C(=O)O` [SEQ ID NO: 5, PRGPRP] (H-PRGPRP-OH), the state of fibroblasts result in data set [8] (21 days and beyond) is given as “remained healthy”. In addition, the “growth of non-cancerous cells tested” value in [8] (summary statement) is on record as “non-inhibitory”. The “cytotoxicity to cancer cells tested” value in data set [9] is “cytotoxic”.

As to “ATTEGTETVQ [SEQ ID NO:3, reference compound]”, the viability result in [2] (setting [12]), in data set [3] (setting [12]), in data set [4] (setting [12]) and in data set [5] (setting [12]) was “did not affect viability” throughout.

On to `CC(C)[C@H](NC(=O)[C@@H]1CCCN1C(=O)[C@H](CCCNC(=N)N)NC(=O)[C@@H]1CCCN1C(=O)CNC(=O)[C@H](CCCNC(=N)N)NC(=O)[C@@H]1CCCN1C(=O)[C@@H]1CCCN1C(=O)[C@@H](N)Cc1ccccc1)C(=O)N[C@@H](CCC(N)=O)C(=O)O` [SEQ ID NO:1] (H-FPPRGPRPVQ-OH; N-terminus and C-terminus assumed), for which, in [10] (between days 20 and 25), the cell killing result was “specific killing of cancerous cells and not non-cancerous fibroblasts”. The cell killing result in data set [10] (within the first seven days, cells then recovered) is “non specific killing”. Also, in data set [1], the appearance of cells result is listed as “appear to be healthy” and the “cytotoxicity to cultured primary cultures of normal human cells” value was “not cytotoxic”.

Turning to `CC(C)[C@H](NC(=O)[C@H](CCCNC(=N)N)NC(=O)[C@H](Cc1ccccc1)NC(=O)[C@@H]1CCCN1C(=O)CNC(=O)[C@@H]1CCCN1)C(=O)N1CCC[C@H]1C(=O)N[C@@H](CCC(N)=O)C(=O)N1CCC[C@H]1C(=O)N[C@@H](CCCNC(=N)N)C(=O)O` [SEQ ID NO:4, reference compound] (H-PGPFRVPQPR-OH), in [1], the appearance of cells entry is “appear to be healthy”.
